Patent US6743810B2, “Indol-3-yl derivatives” (Merck Patent GmbH, priority 2000, dated 2004)
Counter-ions that a name gives are not always drawn.

Structure (SMILES) | melting point
O=C(O)CC(c1ccccc1)c1c[nH]c2cc(OCCCNc3ccccn3)ccc12 (centres unmarked) (as salt: trifluoroacetate) [compound 8, 3-Phenyl-3-{6-[3-(pyridin-2-ylamino)propoxy]indol-3-yl}propionic acid] | 232 °C (dec.)
O=C(O)C[C@@H](c1ccccc1)c1c[nH]c2cc(OCCCNc3ccccn3)ccc12 (as salt: salt) [compound 46, (3S)-3-Phenyl-3-{6-[3-(pyridin-2-ylamino)propoxy]indol-3-yl}propionic acid] | 137 °C
